Laboratory results published in the NIST ThermoML archive (doi:10.1016/j.jct.2019.03.018).
± gives the expanded uncertainty stated by the source.

Settings: Liquid; Ebulliometric method (Recirculating still)

SMILES	Normal boiling temperature [°C]
CC(C)OC(C)C [diisopropyl ether]	68.57 ± 0.7
CCOCC(C)O (centres undefined) [1-ethoxy-2-propanol]	131.89 ± 0.7
CCCO [propan-1-ol]	96.8 ± 0.7
CC(C)O [propan-2-ol]	82.18 ± 0.7
